According to ChEMBL document CHEMBL4308841, “Synthesis, in vitro antiproliferative activity, and kinase inhibitory effects of pyrazole-containing diarylureas and diarylamides” (Eur J Med Chem, 2018):

Key:
NCI-H522 [1] = assay: Growth inhibition of human NCI-H522 cells assessed as cell growth at 10 uM incubated for 48 hrs by sulforhodamine B assay relative to control; format: functional; conditions: NCI-H522, 48 h, read-out: Activity
HT-29 [2] = assay: Growth inhibition of human HT-29 cells assessed as cell growth at 10 uM incubated for 48 hrs by sulforhodamine B assay relative to control; format: functional; conditions: HT-29, 48 h, read-out: Activity
SK-MEL-2 = assay: Growth inhibition of human SK-MEL-2 cells assessed as cell growth at 10 uM incubated for 48 hrs by sulforhodamine B assay relative to control; format: functional; conditions: SK-MEL-2, 48 h, read-out: Activity
NCI-H226 = assay: Growth inhibition of human NCI-H226 cells incubated for 48 hrs by sulforhodamine B assay; format: functional, cell-based; conditions: NCI-H226, 48 h
SW-620 = assay: Growth inhibition of human SW620 cells incubated for 48 hrs by sulforhodamine B assay; format: functional, cell-based; conditions: SW-620, 48 h
CCRF-CEM [3] = assay: Growth inhibition of human CCRF-CEM cells assessed as cell growth at 0.01 uM incubated for 48 hrs by sulforhodamine B assay relative to control; format: functional; conditions: read-out: Activity
SF-268 = assay: Growth inhibition of human SF268 cells assessed as cell growth at 0.01 uM incubated for 48 hrs by sulforhodamine B assay relative to control; format: functional; conditions: SF-268, 48 h, read-out: Activity
SF-539 = assay: Growth inhibition of human SF539 cells assessed as cell growth at 0.01 uM incubated for 48 hrs by sulforhodamine B assay relative to control; format: functional; conditions: SF-539, 48 h, read-out: Activity
UACC-257 = assay: Growth inhibition of human UACC257 cells assessed as cell growth at 0.01 uM incubated for 48 hrs by sulforhodamine B assay relative to control; format: functional; conditions: UACC-257, 48 h, read-out: Activity
RXF 393 = assay: Growth inhibition of human RXF393 cells assessed as cell growth at 0.01 uM incubated for 48 hrs by sulforhodamine B assay relative to control; format: functional; conditions: RXF 393, 48 h, read-out: Activity
PC-3 = assay: Growth inhibition of human PC3 cells assessed as cell growth at 0.01 uM incubated for 48 hrs by sulforhodamine B assay relative to control; format: functional; conditions: PC-3, 48 h, read-out: Activity
MDA-MB-468 = assay: Growth inhibition of human MDA-MB-468 cells assessed as cell growth at 0.01 uM incubated for 48 hrs by sulforhodamine B assay relative to control; format: functional; conditions: MDA-MB-468, 48 h, read-out: Activity
CCRF-CEM [4] = assay: Growth inhibition of human CCRF-CEM cells assessed as cell growth at 0.1 uM incubated for 48 hrs by sulforhodamine B assay relative to control; format: functional; conditions: read-out: Activity
NCI-H460 = assay: Growth inhibition of human NCI-H460 cells assessed as cell growth at 0.1 uM incubated for 48 hrs by sulforhodamine B assay relative to control; format: functional; conditions: NCI-H460, 48 h, read-out: Activity
NCI-H522 [5] = assay: Growth inhibition of human NCI-H522 cells assessed as cell growth at 0.1 uM incubated for 48 hrs by sulforhodamine B assay relative to control; format: functional; conditions: NCI-H522, 48 h, read-out: Activity
HCT-15 = assay: Growth inhibition of human HCT15 cells assessed as cell growth at 0.1 uM incubated for 48 hrs by sulforhodamine B assay relative to control; format: functional; conditions: HCT-15, 48 h, read-out: Activity
HT-29 [6] = assay: Growth inhibition of human HT-29 cells assessed as cell growth at 0.1 uM incubated for 48 hrs by sulforhodamine B assay relative to control; format: functional; conditions: HT-29, 48 h, read-out: Activity
KM12 = assay: Growth inhibition of human KM12 cells assessed as cell growth at 0.1 uM incubated for 48 hrs by sulforhodamine B assay relative to control; format: functional; conditions: KM12, 48 h, read-out: Activity
SK-MEL-5 = assay: Growth inhibition of human SK-MEL-5 cells assessed as cell growth at 0.1 uM incubated for 48 hrs by sulforhodamine B assay relative to control; format: functional; conditions: SK-MEL-5, 48 h, read-out: Activity
CCRF-CEM [7] = assay: Growth inhibition of human CCRF-CEM cells assessed as cell growth at 1 uM incubated for 48 hrs by sulforhodamine B assay relative to control; format: functional; conditions: read-out: Activity
HL-60(TB) = assay: Growth inhibition of human HL-60(TB) cells assessed as cell growth at 1 uM incubated for 48 hrs by sulforhodamine B assay relative to control; format: functional; conditions: HL-60, 48 h, read-out: Activity
MOLT-4 = assay: Growth inhibition of human MOLT4 cells assessed as cell growth at 1 uM incubated for 48 hrs by sulforhodamine B assay relative to control; format: functional; conditions: MOLT-4, 48 h, read-out: Activity
HCC 2998 = assay: Growth inhibition of human HCC2998 cells assessed as cell growth at 1 uM incubated for 48 hrs by sulforhodamine B assay relative to control; format: functional; conditions: HCC 2998, 48 h, read-out: Activity
A498 [8] = assay: Growth inhibition of human A498 cells assessed as cell growth at 1 uM incubated for 48 hrs by sulforhodamine B assay relative to control; format: functional; conditions: A498, 48 h, read-out: Activity
SR = assay: Growth inhibition of human SR cells assessed as cell growth at 100 uM incubated for 48 hrs by sulforhodamine B assay relative to control; format: functional; conditions: read-out: Activity
SNB-75 = assay: Growth inhibition of human SNB75 cells assessed as cell growth at 100 uM incubated for 48 hrs by sulforhodamine B assay relative to control; format: functional; conditions: SNB-75, 48 h, read-out: Activity
UACC-62 = assay: Growth inhibition of human UACC62 cells assessed as cell growth at 100 uM incubated for 48 hrs by sulforhodamine B assay relative to control; format: functional; conditions: UACC-62, 48 h, read-out: Activity
OVCAR-4 = assay: Growth inhibition of human OVCAR4 cells assessed as cell growth at 100 uM incubated for 48 hrs by sulforhodamine B assay relative to control; format: functional; conditions: OVCAR-4, 48 h, read-out: Activity
OVCAR-8 = assay: Growth inhibition of human OVCAR8 cells assessed as cell growth at 100 uM incubated for 48 hrs by sulforhodamine B assay relative to control; format: functional; conditions: OVCAR-8, 48 h, read-out: Activity
SK-OV-3 = assay: Growth inhibition of human SKOV3 cells assessed as cell growth at 100 uM incubated for 48 hrs by sulforhodamine B assay relative to control; format: functional; conditions: SK-OV-3, 48 h, read-out: Activity
A498 [9] = assay: Growth inhibition of human A498 cells assessed as cell growth at 100 uM incubated for 48 hrs by sulforhodamine B assay relative to control; format: functional; conditions: A498, 48 h, read-out: Activity
SN12C = assay: Growth inhibition of human SN12C cells assessed as cell growth at 100 uM incubated for 48 hrs by sulforhodamine B assay relative to control; format: functional; conditions: read-out: Activity

COc1cc(Cl)cc(-c2nn(-c3cccc(NC(=O)Nc4cccc(C(F)(F)F)c4)c3)cc2-c2ccncc2)c1
growth at 10 µM (NCI-H522 [1]): -18.6%
growth at 10 µM (HT-29 [2]): 5.75%
growth at 10 µM (SK-MEL-2): -36.7%
GI50 (NCI-H226; read-out: GI50): 2.26 µM
LC50 (NCI-H226; read-out: LC50): > 100 µM
TGI (NCI-H226; read-out: TGI): 11.5 µM
GI50 (NCI-H226; read-out: pGI50 (converted)): 2.24 µM
LC50 (NCI-H226; read-out: pLC50 (converted)): > 100 µM
TGI (NCI-H226; read-out: pTGI (converted)): 28.8 µM
GI50 (SW-620; read-out: GI50): 2.3 µM
LC50 (SW-620; read-out: LC50): > 100 µM
TGI (SW-620; read-out: TGI): 25.8 µM
GI50 (SW-620; read-out: pGI50 (converted)): 2.29 µM
LC50 (SW-620; read-out: pLC50 (converted)): > 100 µM
TGI (SW-620; read-out: pTGI (converted)): 26.9 µM
growth at 0.01 µM (CCRF-CEM [3]): 98%
growth at 0.01 µM (SF-268): 97%
growth at 0.01 µM (SF-539): 100%
growth at 0.01 µM (UACC-257): 90%
growth at 0.01 µM (RXF 393): 93%
growth at 0.01 µM (PC-3): 91%
growth at 0.01 µM (MDA-MB-468): 94%
growth at 0.1 µM (CCRF-CEM [4]): 97%
growth at 0.1 µM (NCI-H460): 102%
growth at 0.1 µM (NCI-H522 [5]): 53%
growth at 0.1 µM (HCT-15): 83%
growth at 0.1 µM (HT-29 [6]): 95%
growth at 0.1 µM (KM12): 95%
growth at 0.1 µM (SK-MEL-5): 98%
growth at 1 µM (CCRF-CEM [7]): 56%
growth at 1 µM (HL-60(TB)): 81%
growth at 1 µM (MOLT-4): 55%
growth at 1 µM (HCC 2998): 98%
growth at 1 µM (A498 [8]): 75%
growth at 100 µM (SR): -30%
growth at 100 µM (SNB-75): -17%
growth at 100 µM (UACC-62): -82%
growth at 100 µM (OVCAR-4): -13%
growth at 100 µM (OVCAR-8): -43%
growth at 100 µM (SK-OV-3): -3%
growth at 100 µM (A498 [9]): -6%
growth at 100 µM (SN12C): -20%

O=C(Nc1cccc(-n2cc(-c3ccncc3)c(-c3cc(O)cc(Cl)c3)n2)c1)Nc1ccc(Cl)c(C(F)(F)F)c1
growth at 10 µM (NCI-H522 [1]): -16%
growth at 10 µM (HT-29 [2]): 35.3%
growth at 10 µM (SK-MEL-2): -38%
GI50 (NCI-H226; read-out: GI50): 2.47 µM
LC50 (NCI-H226; read-out: LC50): > 100 µM
TGI (NCI-H226; read-out: TGI): 89.6 µM
GI50 (NCI-H226; read-out: pGI50 (converted)): 2.45 µM
LC50 (NCI-H226; read-out: pLC50 (converted)): > 100 µM
TGI (NCI-H226; read-out: pTGI (converted)): 8.91 µM
GI50 (SW-620; read-out: GI50): 3.29 µM
LC50 (SW-620; read-out: LC50): 58 µM
TGI (SW-620; read-out: TGI): 10.7 µM
GI50 (SW-620; read-out: pGI50 (converted)): 3.31 µM
LC50 (SW-620; read-out: pLC50 (converted)): 56.2 µM
TGI (SW-620; read-out: pTGI (converted)): 10.7 µM
growth at 0.01 µM (CCRF-CEM [3]): 97%
growth at 0.01 µM (SF-268): 95%
growth at 0.01 µM (SF-539): 104%
growth at 0.01 µM (UACC-257): 90%
growth at 0.01 µM (RXF 393): 93%
growth at 0.01 µM (PC-3): 95%
growth at 0.01 µM (MDA-MB-468): 93%
growth at 0.1 µM (CCRF-CEM [4]): 95%
growth at 0.1 µM (NCI-H460): 102%
growth at 0.1 µM (NCI-H522 [5]): 83%
growth at 0.1 µM (HCT-15): 88%
growth at 0.1 µM (HT-29 [6]): 93%
growth at 0.1 µM (KM12): 92%
growth at 0.1 µM (SK-MEL-5): 98%
growth at 1 µM (CCRF-CEM [7]): 92%
growth at 1 µM (HL-60(TB)): 113%
growth at 1 µM (MOLT-4): 52%
growth at 1 µM (HCC 2998): 106%
growth at 1 µM (A498 [8]): 92%
growth at 100 µM (SR): -40%
growth at 100 µM (SNB-75): -41%
growth at 100 µM (UACC-62): -85%
growth at 100 µM (OVCAR-4): -10%
growth at 100 µM (OVCAR-8): -52%
growth at 100 µM (SK-OV-3): -15%
growth at 100 µM (A498 [9]): -35%
growth at 100 µM (SN12C): -32%
